Experimental data reported in ChEMBL document CHEMBL4414548 (J Med Chem, 2019).

Key:
[1] = Drug concentration in Balb/c mouse at 3 mg/kg, iv after 5 hrs; assay type: ADME, organism-based; settings: in vivo, read-out: Drug uptake
[2] = target: T1, Non-receptor tyrosine-protein kinase TYK2 (Homo sapiens, UniProt P29597); assay: Inhibition of fluorescein-labeled kinase tracer binding to His-TVMV-fused TYK2 JH2 domain (575 to 869 residues) (unknown origin) measured after 90 mins by HTRF assay
[3] = Cmax in mouse at 10 mg/kg, po; assay type: ADME, organism-based; design: dose 10 mg/kg, route oral; settings: in vivo
[4] = Cmax in Balb/c mouse assessed as 6-((5-Fluoropyridin-2-yl)amino)-4-((2-(methylsulfonyl)phenyl)amino)nicotinamide level at 3 mg/kg, iv after 0.05 hrs; assay type: ADME, organism-based; design: dose 3 mg/kg, route intravenous; settings: in vivo
[5] = AUClast in Balb/c mouse at 10 mg/kg, po; assay type: ADME, organism-based; design: dose 10 mg/kg, time 0 - last, route oral; settings: in vivo
[6] = Clearance in Balb/c mouse at 3 mg/kg, iv; assay type: ADME, organism-based; settings: in vivo
[7] = AUClast in Balb/c mouse assessed as 6-((5-Fluoropyridin-2-yl)amino)-4-((2-(methylsulfonyl)phenyl)amino)nicotinamide level at 10 mg/kg, po; assay type: ADME, organism-based; design: dose 10 mg/kg, time 0 - last, route oral; settings: in vivo
[8] = Drug concentration in Balb/c mouse at 3 mg/kg, iv after 1 hr; assay type: ADME, organism-based; settings: in vivo, read-out: Drug uptake
[9] = AUClast in Balb/c mouse assessed as 6-((5-Fluoropyridin-2-yl)amino)-4-((2-(methylsulfonyl)phenyl)amino)nicotinamide level at 3 mg/kg, iv; assay type: ADME, organism-based; design: dose 3 mg/kg, route intravenous, time 0 - last; settings: in vivo
[10] = Drug concentration in Balb/c mouse at 10 mg/kg, po after 7 hrs; assay type: ADME, organism-based; settings: in vivo, read-out: Drug uptake
[11] = target: T1, Non-receptor tyrosine-protein kinase TYK2; assay: Inhibition of TYK2 JH2 domain in human whole blood assessed as inhibition of IFNalpha-induced STAT5 phosphorylation preincubated for 1 hr followed by IFNalpha stimulation and measured after 15 mins by fluorescence assay; assay type: tissue-based
[12] = Metabolic stability in mouse liver microsomes assessed as parent compound remaining after 10 mins; assay type: ADME, Microsome; settings: read-out: Stability
[13] = Partition coefficient, log P of compound by HPLC analysis; assay type: physicochemical; settings: octanol/water
[14] = Cmax in Balb/c mouse assessed as 6-((5-Fluoropyridin-2-yl)amino)-4-((2-(methylsulfonyl)phenyl)amino)nicotinamide level at 3 mg/kg, iv after 1 hr; assay type: ADME, organism-based; design: dose 3 mg/kg, route intravenous; settings: in vivo
[15] = Drug concentration in Balb/c mouse at 10 mg/kg, po after 1 hr; assay type: ADME, organism-based; settings: in vivo, read-out: Drug uptake
[16] = Metabolic stability in human liver microsomes assessed as parent compound remaining after 10 mins; assay type: ADME, Microsome; settings: read-out: Stability
[17] = Drug concentration in Balb/c mouse at 3 mg/kg, iv after 3 hrs; assay type: ADME, organism-based; settings: in vivo, read-out: Drug uptake
[18] = target: 3',5'-cyclic-AMP phosphodiesterase 4D (Homo sapiens, UniProt Q08499); assay: Inhibition of [3H]cAMP binding to recombinant human His-Tb fused PDE4D2 (86 to 413 residues) expressed in Escherichia coli using [3H]cAMP as substrate preincubated for 10 mins followed by [3H]cAMP addition and measured after 1 hr by scintillation proximity assay
[19] = Drug concentration in Balb/c mouse at 10 mg/kg, po after 0.05 hrs; assay type: ADME, organism-based; settings: in vivo, read-out: Drug uptake
[20] = target: T2, Voltage-gated inwardly rectifying potassium channel KCNH2 (Homo sapiens, UniProt Q12809); assay: Inhibition of human ERG by patch clamp assay
[21] = target: T2, Voltage-gated inwardly rectifying potassium channel KCNH2; assay: Inhibition of human ERG by fluorescence polarization assay
[22] = Cmax in Balb/c mouse assessed as 6-((5-Fluoropyridin-2-yl)amino)-4-((2-(methylsulfonyl)phenyl)amino)nicotinamide level at 10 mg/kg, po after 5 hrs; assay type: ADME, organism-based; design: dose 10 mg/kg, route oral; settings: in vivo
[23] = Oral bioavailability in Balb/c mouse at 10 mg/kg; assay type: ADME, organism-based; settings: in vivo
[24] = Cmax in Balb/c mouse assessed as 6-((5-Fluoropyridin-2-yl)amino)-4-((2-(methylsulfonyl)phenyl)amino)nicotinamide level at 3 mg/kg, iv after 5 hrs; assay type: ADME, organism-based; design: dose 3 mg/kg, route intravenous; settings: in vivo
[25] = Cmax in Balb/c mouse assessed as 6-((5-Fluoropyridin-2-yl)amino)-4-((2-(methylsulfonyl)phenyl)amino)nicotinamide level at 10 mg/kg, po after 0.5 hrs; assay type: ADME, organism-based; design: dose 10 mg/kg, route oral; settings: in vivo
[26] = Cmax in Balb/c mouse assessed as 6-((5-Fluoropyridin-2-yl)amino)-4-((2-(methylsulfonyl)phenyl)amino)nicotinamide level at 3 mg/kg, iv after 7 hrs; assay type: ADME, organism-based; design: dose 3 mg/kg, route intravenous; settings: in vivo
[27] = Cmax in Balb/c mouse assessed as 6-((5-Fluoropyridin-2-yl)amino)-4-((2-(methylsulfonyl)phenyl)amino)nicotinamide level at 10 mg/kg, po after 7 hrs; assay type: ADME, organism-based; design: dose 10 mg/kg, route oral; settings: in vivo
[28] = target: T1, Non-receptor tyrosine-protein kinase TYK2; assay: Inhibition of TYK2 JH1 domain (unknown origin)
[29] = target: Non-receptor tyrosine-protein kinase TYK2 (Mus musculus, UniProt Q9R117); assay: Inhibition of TYK2 JH2 domain in mouse whole blood assessed as inhibition of IFNalpha-induced STAT1 phosphorylation preincubated for 1 hr followed by IFNalpha stimulation and measured after 15 mins by fluorescence assay; assay type: tissue-based
[30] = Permeability across apical to basolateral side in human Caco2 cells; assay type: ADME, cell-based; settings: Caco-2, read-out: permeability
JAK2/TYK2 = JAK2/TYK2 (Homo sapiens, UniProt O60674+P29597); assay: Inhibition of TYK2/JAK2 in IL23-stimulated human Kit225 cells by steady-glo luciferase assay
[31] = target: Mast/stem cell growth factor receptor Kit (Homo sapiens, UniProt P10721); assay: Inhibition of cKIT (unknown origin)
[32] = Drug concentration in Balb/c mouse at 3 mg/kg, iv after 0.5 hrs; assay type: ADME, organism-based; settings: in vivo, read-out: Drug uptake
[33] = target: Tyrosine-protein kinase JAK1 (Homo sapiens, UniProt P23458); assay: Inhibition of JAK1 JH1 domain (unknown origin)
[34] = target: Tyrosine-protein kinase JAK2 (Homo sapiens, UniProt O60674); assay: Inhibition of JAK2 JH1 domain (unknown origin)
[35] = AUClast in mouse at 10 mg/kg, po; assay type: ADME, organism-based; design: dose 10 mg/kg, route oral, time 0 - last; settings: in vivo
[36] = Cmax in Balb/c mouse assessed as 6-((5-Fluoropyridin-2-yl)amino)-4-((2-(methylsulfonyl)phenyl)amino)nicotinamide level at 10 mg/kg, po after 3 hrs; assay type: ADME, organism-based; design: dose 10 mg/kg, route oral; settings: in vivo
[37] = Drug concentration in Balb/c mouse at 3 mg/kg, iv after 0.05 hrs; assay type: ADME, organism-based; settings: in vivo, read-out: Drug uptake
[38] = Cmax in Balb/c mouse assessed as 6-((5-Fluoropyridin-2-yl)amino)-4-((2-(methylsulfonyl)phenyl)amino)nicotinamide level at 10 mg/kg, po after 0.05 hrs; assay type: ADME, organism-based; design: dose 10 mg/kg, route oral; settings: in vivo
JAK3/JAK1 = JAK3/JAK1 (Homo sapiens, UniProt P23458+P52333); assay: Inhibition of JAK1/JAK3 (unknown origin) in IL-2 stimulated cells by cell based assay
[39] = Cmax in Balb/c mouse assessed as 6-((5-Fluoropyridin-2-yl)amino)-4-((2-(methylsulfonyl)phenyl)amino)nicotinamide level at 10 mg/kg, po after 1 hr; assay type: ADME, organism-based; design: dose 10 mg/kg, route oral; settings: in vivo
[40] = Drug concentration in Balb/c mouse at 10 mg/kg, po after 3 hrs; assay type: ADME, organism-based; settings: in vivo, read-out: Drug uptake
[41] = Efflux ratio of permeability in human Caco2; assay type: ADME, cell-based; settings: Caco-2
[42] = Half life in Balb/c mouse at 3 mg/kg, iv; assay type: ADME, organism-based; settings: in vivo
[43] = Drug concentration in Balb/c mouse at 3 mg/kg, iv after 7 hrs; assay type: ADME, organism-based; settings: in vivo, read-out: Drug uptake
JAK2/JAK1 = JAK2/JAK1 (Homo sapiens, UniProt O60674+P23458); assay: Inhibition of JAK1/JAK2 (unknown origin) in GM-CSF stimulated cells by cell based assay
[44] = AUClast in Balb/c mouse at 3 mg/kg, iv; assay type: ADME, organism-based; design: dose 3 mg/kg, route intravenous, time 0 - last; settings: in vivo
[45] = Volume of distribution at steady state in Balb/c mouse at 3 mg/kg, iv; assay type: ADME, organism-based; settings: in vivo, read-out: Vdss
[46] = Cmax in Balb/c mouse assessed as 6-((5-Fluoropyridin-2-yl)amino)-4-((2-(methylsulfonyl)phenyl)amino)nicotinamide level at 3 mg/kg, iv after 3 hrs; assay type: ADME, organism-based; design: dose 3 mg/kg, route intravenous; settings: in vivo
[47] = Drug concentration in Balb/c mouse at 10 mg/kg, po after 5 hrs; assay type: ADME, organism-based; settings: in vivo, read-out: Drug uptake
[48] = Drug concentration in Balb/c mouse at 10 mg/kg, po after 0.5 hrs; assay type: ADME, organism-based; settings: in vivo, read-out: Drug uptake
[49] = Metabolic stability in rat liver microsomes assessed as parent compound remaining after 10 mins; assay type: ADME, Microsome; settings: read-out: Stability
JAK1/TYK2 = JAK1/TYK2 (Homo sapiens, UniProt P23458+P29597); assay: Inhibition of TYK2/JAK1 in IFNalpha-stimulated human Kit225 cells by steady-glo luciferase assay
[50] = Cmax in Balb/c mouse assessed as 6-((5-Fluoropyridin-2-yl)amino)-4-((2-(methylsulfonyl)phenyl)amino)nicotinamide level at 3 mg/kg, iv after 0.5 hrs; assay type: ADME, organism-based; design: dose 3 mg/kg, route intravenous; settings: in vivo

T1 sequence (P29597 whole entry, the tested form may be a part): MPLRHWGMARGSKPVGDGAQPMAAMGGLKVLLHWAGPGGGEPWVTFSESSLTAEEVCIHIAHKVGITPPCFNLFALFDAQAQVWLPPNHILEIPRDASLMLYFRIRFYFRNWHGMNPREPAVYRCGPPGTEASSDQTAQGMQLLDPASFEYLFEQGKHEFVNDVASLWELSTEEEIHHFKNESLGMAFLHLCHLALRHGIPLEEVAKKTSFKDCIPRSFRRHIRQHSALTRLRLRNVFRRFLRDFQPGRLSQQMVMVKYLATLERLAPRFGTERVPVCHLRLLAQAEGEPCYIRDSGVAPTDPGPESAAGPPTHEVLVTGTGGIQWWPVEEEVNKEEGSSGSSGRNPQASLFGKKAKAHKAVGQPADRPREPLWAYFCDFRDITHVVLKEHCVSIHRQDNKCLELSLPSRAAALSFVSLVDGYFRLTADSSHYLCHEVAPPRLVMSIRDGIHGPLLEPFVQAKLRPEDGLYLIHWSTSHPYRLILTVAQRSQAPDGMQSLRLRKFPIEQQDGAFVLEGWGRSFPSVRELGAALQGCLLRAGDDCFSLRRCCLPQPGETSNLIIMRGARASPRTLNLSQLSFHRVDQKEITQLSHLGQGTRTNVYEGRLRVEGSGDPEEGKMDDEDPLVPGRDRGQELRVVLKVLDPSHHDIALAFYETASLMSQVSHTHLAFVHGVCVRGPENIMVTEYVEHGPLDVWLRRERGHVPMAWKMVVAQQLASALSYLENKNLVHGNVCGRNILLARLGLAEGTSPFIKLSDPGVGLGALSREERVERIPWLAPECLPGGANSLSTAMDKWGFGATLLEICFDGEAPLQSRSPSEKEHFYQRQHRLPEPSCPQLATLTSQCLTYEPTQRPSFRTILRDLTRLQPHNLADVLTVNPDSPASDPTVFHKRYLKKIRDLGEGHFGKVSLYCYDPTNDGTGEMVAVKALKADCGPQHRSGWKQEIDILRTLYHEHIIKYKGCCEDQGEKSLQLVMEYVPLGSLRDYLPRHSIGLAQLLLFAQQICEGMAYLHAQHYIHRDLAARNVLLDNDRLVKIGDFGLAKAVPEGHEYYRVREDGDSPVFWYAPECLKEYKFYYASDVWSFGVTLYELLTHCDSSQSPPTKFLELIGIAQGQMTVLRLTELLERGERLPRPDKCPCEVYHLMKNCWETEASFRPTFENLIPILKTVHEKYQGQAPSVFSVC
T2 sequence (Q12809 whole entry): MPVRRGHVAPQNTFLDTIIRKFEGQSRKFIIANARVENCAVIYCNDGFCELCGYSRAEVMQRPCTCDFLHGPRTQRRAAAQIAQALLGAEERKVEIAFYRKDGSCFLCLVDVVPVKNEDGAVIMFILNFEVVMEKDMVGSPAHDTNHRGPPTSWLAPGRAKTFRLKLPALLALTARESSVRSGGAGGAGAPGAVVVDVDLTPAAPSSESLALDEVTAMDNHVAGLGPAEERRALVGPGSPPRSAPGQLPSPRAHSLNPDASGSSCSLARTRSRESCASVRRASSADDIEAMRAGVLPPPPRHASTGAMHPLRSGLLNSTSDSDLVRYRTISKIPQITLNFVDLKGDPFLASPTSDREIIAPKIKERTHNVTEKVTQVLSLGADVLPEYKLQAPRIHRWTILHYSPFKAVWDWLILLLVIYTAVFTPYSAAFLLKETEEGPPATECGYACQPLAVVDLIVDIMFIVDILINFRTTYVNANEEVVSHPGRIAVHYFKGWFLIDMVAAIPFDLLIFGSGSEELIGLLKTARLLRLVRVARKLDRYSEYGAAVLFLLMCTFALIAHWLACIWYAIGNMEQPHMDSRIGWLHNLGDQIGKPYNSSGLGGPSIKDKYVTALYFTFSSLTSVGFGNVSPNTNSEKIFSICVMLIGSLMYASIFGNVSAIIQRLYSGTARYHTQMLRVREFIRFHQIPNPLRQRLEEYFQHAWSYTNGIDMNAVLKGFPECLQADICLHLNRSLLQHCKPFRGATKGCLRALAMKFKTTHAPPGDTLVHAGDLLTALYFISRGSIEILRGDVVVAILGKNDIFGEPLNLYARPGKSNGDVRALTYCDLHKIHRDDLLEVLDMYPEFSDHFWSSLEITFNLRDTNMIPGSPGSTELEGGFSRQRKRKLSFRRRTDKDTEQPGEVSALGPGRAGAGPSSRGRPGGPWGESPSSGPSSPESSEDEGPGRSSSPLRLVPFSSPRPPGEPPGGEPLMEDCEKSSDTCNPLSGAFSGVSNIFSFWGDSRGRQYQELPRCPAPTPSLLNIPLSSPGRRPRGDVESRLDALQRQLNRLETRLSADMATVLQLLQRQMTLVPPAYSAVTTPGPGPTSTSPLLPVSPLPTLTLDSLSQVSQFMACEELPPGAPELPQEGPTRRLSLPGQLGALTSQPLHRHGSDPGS
Sequence of JAK2/TYK2 (O60674 whole entry): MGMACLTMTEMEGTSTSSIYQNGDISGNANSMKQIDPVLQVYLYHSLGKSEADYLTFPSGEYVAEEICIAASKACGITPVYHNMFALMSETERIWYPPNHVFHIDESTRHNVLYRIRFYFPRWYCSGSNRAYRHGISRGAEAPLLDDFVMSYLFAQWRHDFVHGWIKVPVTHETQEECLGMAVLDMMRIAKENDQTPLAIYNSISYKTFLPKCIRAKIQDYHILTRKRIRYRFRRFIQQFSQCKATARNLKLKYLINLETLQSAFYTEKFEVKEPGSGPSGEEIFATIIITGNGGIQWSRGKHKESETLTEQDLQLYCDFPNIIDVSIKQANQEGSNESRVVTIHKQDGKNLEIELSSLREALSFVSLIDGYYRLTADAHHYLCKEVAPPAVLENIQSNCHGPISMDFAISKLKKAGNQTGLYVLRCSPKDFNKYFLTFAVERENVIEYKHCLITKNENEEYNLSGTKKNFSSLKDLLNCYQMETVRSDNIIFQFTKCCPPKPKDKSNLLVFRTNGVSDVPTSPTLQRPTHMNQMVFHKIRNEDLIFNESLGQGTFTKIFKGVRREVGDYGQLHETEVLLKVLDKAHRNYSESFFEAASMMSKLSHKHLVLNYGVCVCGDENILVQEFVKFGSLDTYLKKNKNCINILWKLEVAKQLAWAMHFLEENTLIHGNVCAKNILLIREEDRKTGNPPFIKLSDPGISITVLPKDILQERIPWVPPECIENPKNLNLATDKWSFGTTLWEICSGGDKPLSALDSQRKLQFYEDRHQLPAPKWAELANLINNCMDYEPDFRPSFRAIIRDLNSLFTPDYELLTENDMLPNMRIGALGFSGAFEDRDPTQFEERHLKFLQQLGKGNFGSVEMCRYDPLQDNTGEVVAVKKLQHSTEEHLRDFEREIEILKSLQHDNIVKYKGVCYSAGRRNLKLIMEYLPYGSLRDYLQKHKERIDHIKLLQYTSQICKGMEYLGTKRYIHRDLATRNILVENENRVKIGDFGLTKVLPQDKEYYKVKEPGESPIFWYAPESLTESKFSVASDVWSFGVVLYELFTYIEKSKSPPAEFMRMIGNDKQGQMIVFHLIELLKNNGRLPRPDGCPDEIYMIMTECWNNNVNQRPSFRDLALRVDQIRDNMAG
Sequence of JAK2/TYK2 (P29597 whole entry): as the sequence (P29597 whole entry, the tested form may be a part) above
Sequence of Tyrosine-protein kinase JAK2 (O60674 whole entry, the tested form may be a part): as the sequence (O60674 whole entry) above
Sequence of JAK2/JAK1 (P23458 whole entry): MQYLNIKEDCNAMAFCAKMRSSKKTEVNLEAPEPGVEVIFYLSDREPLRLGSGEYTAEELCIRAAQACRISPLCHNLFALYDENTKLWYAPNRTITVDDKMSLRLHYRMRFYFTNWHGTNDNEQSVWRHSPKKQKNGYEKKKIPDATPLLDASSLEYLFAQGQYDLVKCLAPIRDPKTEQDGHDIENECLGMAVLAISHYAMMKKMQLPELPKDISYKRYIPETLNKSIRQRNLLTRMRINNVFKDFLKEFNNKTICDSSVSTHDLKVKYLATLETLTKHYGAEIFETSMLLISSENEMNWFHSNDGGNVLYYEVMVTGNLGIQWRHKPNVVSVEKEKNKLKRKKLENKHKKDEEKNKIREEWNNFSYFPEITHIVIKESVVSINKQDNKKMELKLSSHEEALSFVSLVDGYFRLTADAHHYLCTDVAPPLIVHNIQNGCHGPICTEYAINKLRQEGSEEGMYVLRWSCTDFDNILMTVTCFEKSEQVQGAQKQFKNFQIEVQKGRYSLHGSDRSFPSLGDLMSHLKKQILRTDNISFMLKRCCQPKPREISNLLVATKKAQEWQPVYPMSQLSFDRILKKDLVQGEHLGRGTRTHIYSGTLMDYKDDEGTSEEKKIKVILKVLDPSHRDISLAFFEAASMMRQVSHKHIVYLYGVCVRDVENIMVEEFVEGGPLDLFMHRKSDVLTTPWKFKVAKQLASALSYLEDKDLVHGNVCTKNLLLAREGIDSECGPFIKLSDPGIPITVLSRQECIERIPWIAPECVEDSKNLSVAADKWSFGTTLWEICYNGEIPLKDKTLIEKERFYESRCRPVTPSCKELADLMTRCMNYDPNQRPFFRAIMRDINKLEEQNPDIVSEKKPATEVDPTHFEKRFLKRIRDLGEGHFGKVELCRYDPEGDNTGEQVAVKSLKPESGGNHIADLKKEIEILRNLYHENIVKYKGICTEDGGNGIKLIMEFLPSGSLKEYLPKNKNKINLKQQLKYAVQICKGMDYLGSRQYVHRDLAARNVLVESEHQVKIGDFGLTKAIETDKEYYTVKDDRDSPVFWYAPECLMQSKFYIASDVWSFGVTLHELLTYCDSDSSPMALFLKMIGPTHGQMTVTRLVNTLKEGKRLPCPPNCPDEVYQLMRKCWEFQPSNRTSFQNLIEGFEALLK
Sequence of JAK2/JAK1 (O60674 whole entry): as the sequence (O60674 whole entry) above
Sequence of Tyrosine-protein kinase JAK1 (P23458 whole entry, the tested form may be a part): as the sequence (P23458 whole entry) above
Sequence of JAK1/TYK2 (P23458 whole entry): as above
Sequence of JAK1/TYK2 (P29597 whole entry): as the sequence (P29597 whole entry, the tested form may be a part) above

## CNC(=O)c1cnc(Nc2ccc(F)cn2)cc1Nc1ccccc1S(C)(=O)=O
[1]
  concentration at 5 h: 440 nM
[2]
  IC50: 0.92 nM
[3]
  Cmax: 1620 nM
[4]
  Cmax: 51 nM
[5]
  AUC(0-t): 8.1 µM·h
[6]
  clearance: 15 mL/min/kg
[7]
  AUClast: 200 nM·h
[8]
  concentration at 1 h: 2100 nM
[9]
  AUClast: 360 nM·h
[10]
  concentration at 7 h: 450 nM
[11]
  IC50: 180 nM
[12]
  remaining at 10 min: 87%
[13]
  logP: 2.61
[14]
  Cmax: 84 nM
[15]
  concentration at 1 h: 1600 nM
[16]
  remaining at 10 min: 90%
[17]
  concentration at 3 h: 530 nM
[18]
  IC50: 4.2 µM
[19]
  concentration at 0.05 h: 780 nM
[20]
  IC50: 2500 nM
[21]
  IC50: 25 µM
[22]
  Cmax: 47 nM
[23]
  bioavailability: 35%
[24]
  Cmax: 41 nM
[25]
  Cmax: 14 nM
[26]
  Cmax: 54 nM
[27]
  Cmax: 24 nM
[28]
  IC50: > 50 µM
[29]
  IC50: 450 nM
[30]
  Papp A→B: 4.8 ×10⁻⁶ cm/s
JAK2/TYK2
  IC50: 63 nM
[31]
  IC50: 100 nM
[32]
  concentration at 0.5 h: 2100 nM
[33]
  IC50: > 50 µM
[34]
  IC50: > 50 µM
[35]
  AUC(0-t): 9.83 µM·h
[36]
  Cmax: 28 nM
[37]
  concentration at 0.05 h: 3.5 µM
[38]
  Cmax: 9.8 nM
JAK3/JAK1
  IC50: > 12.5 µM
[39]
  Cmax: 21 nM
[40]
  concentration at 3 h: 1500 nM
[41]
  efflux ratio: 10
[42]
  half-life: 180 min
[43]
  concentration at 7 h: 190 nM
JAK2/JAK1
  IC50: > 12.5 µM
[44]
  AUC(0-t): 7 µM·h
[45]
  Vd: 2.8 L/kg
[46]
  Cmax: 33 nM
[47]
  concentration at 5 h: 1400 nM
[48]
  concentration at 0.5 h: 1400 nM
[49]
  remaining at 10 min: 85%
JAK1/TYK2
  IC50: 63 nM
[50]
  Cmax: 110 nM
